# Assays:
# [1] = Procedure for determining photostability (bleaching in vitro, continuous 785 nm irradiation); assay type: physicochemical
# Description: 4C): Bleaching in vitro: Capillaries filled with 2.5 μM solutions in serum were continuously irradiated using a 785 nm laser (100 mW/cm^2) and frames were acquired for 20 minutes. Bleaching kinetics were extracted by analyzing the mean counts in an ROI overtime
# Imaging was performed on a custom-built setup. LUMICS laser unit LU0785DLU250-S70AN03 (25 W) 785 nm″ was used for excitation. Laser was externally controlled using a LUMICS laser diode control system. Laser output was coupled in a 4×1 fan-out fiber-optic bundle (THORLABS BF46LSO1) of 600 μm core diameter for each optical path. The output from the fiber was fixed in an excitation cube (THORLABS KCB1EC/M), reflected off of a mirror (THORLABS BBE1-E03), and passed through a positive achromat (THORLABS AC254-050-B), SP filter (THORLABS FESH800) and an engineered diffuser (THORLABS ED1-S20-MD or ED1-S50-MD) to provide uniform illumination over the working area. In a typical experiment, the excitation flux in the field of view was adjusted to be close to 100 mWcm^−2. Power density was determined using a THORLABS energy meter console PM100D in combination with a THORLABS S130C sensor (measurement uncertainty of ±3%). The working area was covered by blackout fabric (THORLABS BK5). Emitted light was directed through two filters (THORLABS FELH800) screwed onto a EDMUND OPTICS Acktar Hexa-Black 25 mm noise reduction extension tube, via a C-mount camera lens (NAVITAR SWIR-35) onto an NIR-camera (PCO Edge 4.2 or Prime BSI). The software μManager was used to externally control the camera. The assembly was partially enclosed to avoid excess light while enabling manipulation of the field of view during operation.
# For each dye (conjugate), solutions in H2O and FBS with an OD (785 nm)<1.0 in a 1 cm cuvette (HELLMA 115B-QS) were prepared. […] In order to be able to make useful comparison between different samples and experiments, the time axis was converted into a number of absorbance events by multiplication with the “absorptions per molecule per second”.
# MDA-MB-468 cells = assay: In vivo distribution of NIR-fluorescent Panitumumab conjugates in tumor bearing mice; settings: 24 hrs after intravenous injection; 3 μg or 100 μg dose
# From the text: FIG. 5: Comparing Pan-sNIR (NIR-fluorescent Panitumumab) and Pan-IRDye800CW in tumor bearing mice post intraveneous injection. Mice were generated by subcutaneous implantation of MDA-MB-468 cells.
"more photostable than NIR, IRDye®8000W ([1]; fetal bovine serum (FBS)) [times]",more stable than ICG ([1]; fetal bovine serum (FBS)) [times],"bleaching slower than NIR, ICG and IRDye®8000W ([1]; water) [times]",Compound,tumor signal than/over the liver (MDA-MB-468 cells)
2.5,1.6,3.5,"C#CCCCCNC(=O)C(=C\C=C\C1=[N+](CCCCS(=O)(=O)[O-])c2ccc(S(=O)(=O)[O-])cc2C1(C)C)/C=C/C=C1/N(CCCCS(=O)(=O)[O-])c2ccc(S(=O)(=O)[O-])cc2C1(C)C.[Na+].[Na+].[Na+] [sNIR, sodium 2-((1E,3Z,5E)-7-((E)-3,3-dimethyl-5-sulfonato-1-(4-sulfonatobutyl)indolin-2-ylidene)-4-(hex-5-yn-1-ylcarbamoyl)hepta-1,3,5-trien-1-yl)-3,3-dimethyl-1-(4-sulfonatobutyl)-3H-indol-1-ium-5-sulfonate]",–
–,–,–,"Pan-8000W: Panitumumab-IRDye800, prepared in a similar fashion [reference compound]",1.4-1.8 ×

# Reference: patent US20260117070A1, “NEAR-INFRARED FLUORESCENT HEPTAMETHINE DYE CONJUGATES WITH FAVORABLE BLEACHING PROPERTIES” (HELMHOLTZ ZENTRUM MÜNCHEN DEUTSCHES FORSCHUNGSZENTRUM FÜR …, priority 2022, published 2026)
